A short description of data set [1]: ECO-4601 concentrations in plasma and tissues, rat C6 orthotopic brain tumors. The class given is in vivo. The following applies: individual rats. As to the method: Rat C6 glioma cells were purchased from the American Type Culture Collection (Manessa, Va.) and grown in Dulbecco's modified Eagle's medium (DMEM) supplemented with 10% FBS, 125 U/mL penicillin G, 125 μg/mL streptomycin sulfate, and 2.2 μg/mL amphotericin B (Fungizone). All culture reagents were obtained from Gibco BRL (Invitrogen Burlington, ON, Canada). Cultures were grown in monolayers and maintained at 37° C. in a humidified atmosphere of 5% CO2. Upon reaching confluency, spheroids were prepared using the hanging drop method previously described by Del Duca et al. ((2004) J. Neurooncol 67, p 295). Briefly, 20 μl drops of DMEM containing 15,000 cells each were suspended from the lids of culture dishes and the resulting aggregates were transferred to culture dishes base-coated with agar after 72 hours. The resulting spheroids were adequate for in vivo implantation after 48 hours of incubation on agar.
Male, Sprague-Dawley rats (250-300 g) (Charles River Canada, St Constant, QC) were anesthetized with 50 mg/kg ketamine and 10 mg/kg xylazine. The right cortical surface in the parietal-occipital region was exposed by craniectomy using a high-powered drill (DREMEL, USA) and the underlying dura and its vessels were carefully removed under a surgical microscope. A piece of the cortex was removed to expose the underlying white matter and a single speroid containing rat C6 tumor cells was placed into the surgical defect. The craniectomy was covered with bone wax (Ethicon, Peterborough, Canada) and the overlying skin sutured. Following recovery from anesthesia, the animals were fed and had access to water ad libitum.
Following completion of in vivo studies, animals were sacrificed by anesthetic overdose and decapitated. Brain, tumor, and liver were snap-frozen in liquid nitrogen and stored frozen (−70° C.±10° C.). For blood samples, each blood sample was collected into a K2-EDTA tube and kept on wet ice for a maximum of 30 minutes. Blood samples were centrifuged under refrigeration (2 to 8° C.) for 10 minutes at 1,500 g (RCF). A volume of 25 μL of aqueous 4% w/v L-ascorbic acid was added to a volume of 225 μL of rat plasma in a clean tube, and the samples were thoroughly mixed by inversion. A volume of 125 uL of the resulting mixture was transferred to a separate tube for bioanalysis, while the remaining mixture was maintained as a backup, and both the bioanalysis and back-up portions were frozen on dry ice and stored frozen (−70° C.±10° C.).
Rat plasma (50 μL) was mixed with 500 μL of acetone containing 100 ng/mL of the internal standard (Compound 2). The mixture was vortexed for 20 seconds, incubated 10 min at RT and centrifuged at 12,000×g for 10 minutes. The supernatants were transferred into HPLC injection vials and 20 μL were analyzed by tandem liquid chromatography/mass spectrometry. The chromatography was achieved on a Luna C18 column (30×4.6 mm, 5 μm particles; Phenomenex, Torrance, Calif.) with a mobile phase consisting of 100% methanol: 0.5% formic acid in water (85:15) at a flow rate of 1 mL/min. Flow was split 1:10 prior to introduction into the ESI source. The nebulization was assisted by and octagonal jet stream of nitrogen heated at […] and set at a flow of 4 L/min. The ion source voltage (ISV) was at 4000 V in positive mode, declustering potential (OR-QO) was set to 20 V, and the collision energy (Elab) was set to 25 V. The mass transition monitered for ECO-4601 and the internal standard were m/z 463→271 and 477→273, respectively. […]

For another data set, the target named is T1, PBR (Rattus norvegicus, UniProt P16257).
T1 construct: from tissue; host or cells: orthotopic rat C6 glioma in Sprague-Dawley rats, in vivo
Description: In vivo PBR occupancy by PET (11C-(R)-PK11195) following IP administration. The following applies: 30 mg/kg IP, 30 min before scan, mean±S.D. As to the method:
(R)-1-(2-chlorophenyl)-N-methyl-N-(1-methyl-propyl)-3-isoquinoline carboxamide (R N-desmethyl PK11195), the precursor for the radioisotope-labeled (R) —PK11195, was purchased from ABX (Radeburg, Germany). The synthesis of ^11C-(R)-PK11195 was accomplished by a modification of the method of Camsonne et al. (J. Label. Compd. Radiopharm., 21: 985-991,1984). Briefly, ^11C-methyl iodide (^11C—CH3I) was transferred by a stream of nitrogen gas at a flow rate of 10 ml/min into a reaction medium containing 1 mg or R—N-desmethyl PK11195 previously dissolved in 0.5 mL of dimethylsulfoxide (DMSO) and about 20 mg of sodium hydroxide. The reaction was initiated at room temperature, with a bubbling of the ^11C—CH3I being continued over a 5 minute period. After bubbling was complete, the reaction mixture was left standing for 5 minutes. Purification was performed by high pressure liquid chromatography (HPLC) using a reverse-phase C18 column and a methanol:ammonium formate (20 mM) (80:20) mixture and a mobile phase at a flow rate of 3 mL/min. ^11C—(R) —PK11195 was eluted at 11 minutes and obtained with a specific radioactivity of […].
In vivo PET studies were performed 14 days post tumor implantation. […] Attenuation correction factors, for each rat (total of 7 animals), were determined using a 10 min ^57Co transmission scan acquired immediately prior to the dynamic scan. […]

The test system of data set [2] is GHA oligodendroglioma cell line. The experiment in a line: MTT cytotoxicity, GHA cell line. It counts as cell-based. The following applies: 96 h, Human. The procedure:
The cytotoxic activity of Compound 1 was further evaluated using a panel of brain tumor cell lines. This study was performed in collaboration with INSERM (Grenoble, France). Tumor cells (5,000 to 10,000 cells per well depending on their doubling time) were plated in 96-well flat-bottom plates and incubated for 24 hours before treatment. Tumor cells were then incubated for 96 hours with seven different concentrations of Compound 1: […], 0.01, and 0.001 μM. The in vitro cytotoxic activity was determined by a standard MTT assay.

For orientation: IC50 means the point on the concentration scale where inhibition reaches its midpoint.

Where “and” joins values, the source holds several entries; their conditions need not be identical. Equal values may be shown once.

Regarding `CC(C)=CCC/C(C)=C/CC/C(C)=C/CN1C(=O)c2cccc(O)c2Nc2c(O)cc(O)cc21` [Compound 1, 10-farnesyl-4,6,8-trihydroxy-5,10-dihydrodibenzo[b,e][1,4]diazepin-11-one], in data set [1], the “Ratio Tumor/Brain” value is 10.1 and 2.1 and 5.2 and 11.30 and 3.5; the Tumor is 2701 ng/g and 239 ng/g and 509 ng/g and 2891 ng/g and 1145 ng/g. In data set [1] (C6 orthotopic brain tumor), the Brain was 249 ng/g and 115 ng/g and 98 ng/g and 254 ng/g and 327 ng/g; the Liver is 994 ng/g and 164 ng/g and 1083 ng/g and 2767 ng/g and 123 ng/g; the “Pasma ng/mL” value was 13,088 ng/mL and 2,657 ng/mL and 5,727 ng/mL and 10,212 ng/mL and 1,177 ng/mL. In addition, the “mean tumor binding potential (B.P.) after compound” value at PBR worked out at 1.05±0.34. This molecule displayed an IC50 in data set [2] of 1600 ± 700 nM.

The record behind these values is patent US20090062255A1, “TUMOR-TARGETING EVALUATION METHODOLOGY AND COMPOUNDS RELATED THERETO” (THALLION PHARMACEUTICALS INC., priority 2007, published 2009).
